{"source": "patent US8834907B2", "about": "“Active nanocomposite materials and production method thereof” (Nanobiomatters, S.L., priority 2008, dated 2014)", "system": "Salmonella", "details": "used in suspension", "procedure": "To evaluate the antimicrobial capacity of PLA films, 600 mg of film were weighed, for both control without clay and for the sample with antimicrobial clay, and placed into 10 mL of sterile culture medium. They were stored at 4° C. for four weeks, prior to inoculation with Salmonella spp.", "data": [{"molecule": "O=[N+]([O-])[O-].[Ag+]", "note": "[silver nitrate]", "values": [{"measurement": "minimum bactericidal concentration (reducing the population to zero)", "value": "around 100 ppm"}]}]}
